Like-named read-outs stand apart in the source and are kept apart here.
How the values were obtained:
[1] = system: BAF3-EGFR (L858R/T790M/C797S) cells; experiment: Inhibition of proliferation of BAF3-EGFR (L858R/T790M/C797S) cells, CCK-8; assay type: cell-based; settings: Ba/F3 EGFR, 72 h, read-out: BAF3(EGFR T790M L858R C797S) cell inhibitory activity IC50
Description: (§1) A flask of EGFR (L858R/T790M/C797S) cells in the logarithmic growth phase and good conditions was taken, and the cells were collected and added to a centrifuge tube. 20 μL of cells were taken and counted, and the required number of cells (mL) was pipetted and centrifuged at 1200 rpm for 3 min. The supernatant was discarded, and an appropriate amount of plating medium (RPMI medium+10% FBS) was added to adjust the cell density to 1.5×10^5 cells/mL. The cells were seeded on a 96-well plate at 100 μL/well using a multi-channel pipette and cultured in a cell incubator at 37° C., 5% CO2 with saturated humidity. After overnight incubation, compounds were loaded using a nanoliter pipettor, 2 duplicate wells were set for each concentration, and cells without compound added were used as negative controls.
(§2) Inhibition rate (%)=(mean value of negative control group-mean value of experimental group)/(mean value of negative control group−mean value of blank group)×100%.
(§3) A dose-response curve was fitted by four-parameter analysis, with the logarithm of compound concentration serving as abscissa and inhibition rate serving as ordinate, such that IC50 was calculated.

[2] = molecular target: EGFR (d746-750/T790M/C797S) (Homo sapiens (Human), UniProt P00533, C797S/DEL746-750/T790M); experiment: Inhibitory activity for EGFR (d746-750/T790M/C797S) kinase; assay type: biochemical; settings: ATP 5 μM; read-out: EGFR(d19/T790M/C797S) (IC50)
Description: 1.5 Screening for Inhibitory Activity for EGFR (d746-750/T790M/C797S) Kinase
(§4) A 50 ng/μL EGFR (d746-750/T790M/C797S, BPS) stock solution was diluted with a kinase buffer (50 mM HEPES, 10 mM MgCl2, 2 mM DTT, 1 mM EGTA, 0.01% Tween 20), and 6 μL of 1.67× working solution at 0.05 ng/μL (final concentration: 0.03 ng/μL) was added to each well. Different compounds dissolved in DMSO were added to the wells using a nanoliter pipettor, resulting in the final concentrations of the compounds of 10 nM to 0.0024 nM (4-fold gradient for 7 concentrations in total), and blank control wells (without enzyme) and negative control wells (with enzyme, plus vehicle DMSO) were set, 2 replicate wells for each concentration. After enzyme was reacted with the compound or vehicle for 30 min, 5×ATP at 25 μM (final concentration: 5 μM, Sigma) prepared with a kinase buffer was mixed with 5× substrate at 0.5 μM (final concentration: 0.1 μM, ULight-poly GT, PerkinElmer) at a ratio of 1:1 (v:v), and the mixture was added to each well at 4 μL/well. After being sealed with a film, the plate was incubated at room temperature for 2 h, and then 5 μL of 4×EDTA at 40 mM (final concentration: 10 mM) was added to each well. After the plate was incubated for 5 min at room temperature, 5 μL of 4× detection reagent at 8 nM (final concentration: 2 nM, Eu-anti-phospho-tyrosine antibody, PerkinElmer) was added to each well. After being incubated at room temperature for 1 h, the plate was read using a PerkinElmer Envision multi-mode microplate reader (excitation: 320 nm, emission: 665 nm), and IC50 was calculated by four-parameter fitting.

[3] = system: PC-9 EGFR-Del19-T790M-C797S cells; experiment: Inhibition of proliferation of PC-9-EGFR (Del19 T790M C797S) cells, CCK-8; assay type: cell-based; settings: 72 h, read-out: PC-9-EGFR (Del19 T790M C797S) cell inhibitory activity IC50
Description: PC-9 EGFR-Del19-T790M-C797S cells in the logarithmic growth phase and good conditions were taken, washed with PBS, digested with pancreatin, terminated with a complete medium, collected and added to a centrifuge tube, adjusted to a cell density of 2×10^4 cells/mL, and seeded in a 96-well plate (100 μL/well). Meanwhile, compounds were loaded using a nanoliter pipettor resulting in the final concentrations of the compounds of 1000 nM-0.06 nM, and a control was set, replicate wells for each concentration. After 72 h of incubation in the cell incubator, the assay reagent CCK-8 (manufacturer: Dojindo Laboratories, Beijing; 10 μL/well) was added. After 2 h of incubation in the cell incubator, absorbance was measured at 450 nm on a PerkinElmer Envision microplate reader, and the inhibition rate was calculated.
as §2, §3

[4] = molecular target: EGFR (d746-750 (d19)/T790M) (Homo sapiens (Human), UniProt P00533, DEL746-750/T790M); experiment: Inhibitory activity for EGFR (d746-750 (d19)/T790M) kinase; assay type: biochemical; settings: ATP 5 μM
Description: 1.3 Screening for Inhibitory Activity for EGFR (d746-750 (d19)/T790M) Kinase
as §4, with “(d746-750/T790M, Carna)” for “(d746-750/T790M/C797S, BPS)”, “0.005” for “0.05”, “0.003” for “0.03”

[5] = In vivo pharmacokinetics in ICR mice; settings: for AUC(0-inf) / AUC(0-t) / MRT last / half-life / bioavailability / Cmax / Tmax: mouse, plasma; for AUC(0-t): read-out: AUC(0-t); for MRT last: read-out: MRT(0-t); for half-life: read-out: T½ (converted); for bioavailability: 10 mg/kg, PO vs IV; for Cmax: read-out: Cmax; for Tmax: read-out: Tmax
Description: The animals to be tested (ICR mice) were fasted for 12 h before administration and food was provided 4 h after administration, and water was freely drunk before and after the experiment and during the experiment.
After intragastric administration, about 0.1 mL of blood was collected from the orbit at 0 min, 15 min, 30 min, 1 h, 2 h, 4 h, 6 h, 8 h, 10 h, and 24 h. After anticoagulation with EDTA-K2, blood samples were transferred to a centrifuge within 30 min, and centrifuged at 4000 rpm for 10 min at 4° C. to separate the plasma. All the plasma samples were collected and immediately stored at −20° C. for testing.
300 μL of acetonitrile solution containing an internal standard ([…] diazepam) was added to 20 μL of the plasma sample to be tested and a standard curve sample. The mixture was shaken and homogeneously mixed for 5 min, and centrifuged at 12,000 rpm for 10 min. 70 μL of supernatant was taken and diluted with 70 μL of ultrapure water. After being mixed well, 2 μL of the resulting sample was subjected to LC/MS/MS, and a chromatogram was recorded.

[6] = system: BAF3-EGFR (del19/T790M/C797S) cells; experiment: Inhibition of proliferation of BAF3-EGFR (Del19/T790M/C797S) cells, CCK-8; assay type: cell-based; settings: Ba/F3 EGFR-Del19/T790M/C797S, 72 h, read-out: BAF3(EGFR T790M Del19 C797S) cell inhibitory activity IC50
Description: as §1, with “BAF3-EGFR (del19/T790M/C797S)” for “EGFR (L858R/T790M/C797S)”, “1.0×10^5” for “1.5×10^5”
as §2, §3

EGFR (d746-750 (d19)/T790M), sequence (P00533 other isoform, or with tags, fused parts or gaps T790M/del 1-668/del 746-750 limits assumed): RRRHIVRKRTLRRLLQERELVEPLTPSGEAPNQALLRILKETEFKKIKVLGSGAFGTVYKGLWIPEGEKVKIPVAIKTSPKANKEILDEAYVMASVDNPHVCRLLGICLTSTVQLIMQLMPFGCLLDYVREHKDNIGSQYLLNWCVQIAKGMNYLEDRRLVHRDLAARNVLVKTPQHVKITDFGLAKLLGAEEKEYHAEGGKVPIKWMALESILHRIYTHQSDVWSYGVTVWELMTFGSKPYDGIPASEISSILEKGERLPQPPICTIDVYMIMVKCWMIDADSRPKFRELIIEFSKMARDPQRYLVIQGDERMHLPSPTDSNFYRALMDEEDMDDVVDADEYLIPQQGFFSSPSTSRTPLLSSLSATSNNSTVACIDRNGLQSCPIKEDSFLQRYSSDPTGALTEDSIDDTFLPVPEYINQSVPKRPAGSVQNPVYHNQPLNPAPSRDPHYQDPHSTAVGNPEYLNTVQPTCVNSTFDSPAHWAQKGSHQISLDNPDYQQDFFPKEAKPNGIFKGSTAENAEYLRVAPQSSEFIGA
EGFR (d746-750/T790M/C797S), sequence (P00533 other isoform, or with tags, fused parts or gaps T790M/C797S/del 1-694/del 746-750 limits assumed): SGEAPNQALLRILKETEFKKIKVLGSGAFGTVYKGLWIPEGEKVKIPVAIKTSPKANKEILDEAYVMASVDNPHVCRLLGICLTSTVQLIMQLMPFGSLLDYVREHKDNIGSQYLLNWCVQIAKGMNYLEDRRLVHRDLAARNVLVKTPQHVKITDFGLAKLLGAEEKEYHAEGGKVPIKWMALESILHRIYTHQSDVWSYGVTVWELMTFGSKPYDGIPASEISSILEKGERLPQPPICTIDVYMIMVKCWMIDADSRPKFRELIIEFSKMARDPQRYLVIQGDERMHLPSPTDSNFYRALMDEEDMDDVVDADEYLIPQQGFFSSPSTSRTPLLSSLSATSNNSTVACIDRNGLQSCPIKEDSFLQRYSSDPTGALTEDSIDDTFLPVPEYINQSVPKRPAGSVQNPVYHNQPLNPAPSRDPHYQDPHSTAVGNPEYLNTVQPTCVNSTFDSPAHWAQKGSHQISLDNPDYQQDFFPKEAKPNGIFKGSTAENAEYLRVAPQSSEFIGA

SMILES	IC50 [1]	IC50 [2]	IC50 [3]	also measured
[2H]C([2H])([2H])N(C[C@@H](C)Nc1ccc2c(c1)N/C1=N\C(=O)c3cc(C)nc(c3)-c3cnn(C)c3OCCC[C@@H](C3CC3)CN12)C([2H])([2H])[2H] [Example 146]	< 5 nM	0.074 nM	< 50 nM	–
Cc1cc2cc(n1)-c1cnn(C)c1OCCC[C@@H](C1CC1)CN1/C(=N/C2=O)Nc2cc(N[C@H]3CC[C@H](O)CC3)ccc21 [Example 151]	< 5 nM	0.12 nM	< 50 nM	–
CCC1(CNc2ccc3c(c2)N/C2=N\C(=O)c4cc(C)nc(c4)-c4cnn(C)c4OCCC[C@@H](C4CC4)CN23)COC1 [Example 92]	< 5 nM	–	–	IC50 [6]: < 1 nM
Cc1cc2cc(n1)-c1cnn(C)c1OCCC[C@@H](C1CC1)CN1/C(=N/C2=O)Nc2ccc(N[C@@H](C)CCN3CCCCC3)cc21 [Example 144]	< 5 nM	0.068 nM	< 50 nM	–
Cc1cc2cc(n1)-c1cnn(C)c1OCCC[C@@H](C1CC1)CN1/C(=N/C2=O)Nc2ccc(N(C)[C@@H](C)CN(C)C)cc21 [Example 85]	–	–	< 50 nM	–
[2H]C([2H])([2H])N(CCN(C)C)c1ccc2c(c1)N1C[C@H](C3CC3)CCCOc3c(cnn3C)-c3cc(cc(C)n3)C(=O)/N=C/1N2 [Example 116]	–	–	< 50 nM	–
Cc1cc2cc(n1)-c1cnn(C)c1OCCC[C@@H](C1CC1)CN1/C(=N/C2=O)Nc2ccc(N[C@H](C)CN(C)C)cc21 [Example 65]	< 5 nM	–	–	IC50 [6]: < 1 nM
Cc1cc2cc(n1)-c1cnn(C)c1OCCC[C@@H](C1CC1)CN1/C(=N/C2=O)Nc2ccc(N[C@H](C)CCN3CCCCC3)cc21 [Example 143]	< 5 nM	0.079 nM	< 50 nM	–

More lines, main results first:

IC50 [1]	IC50 [2]	IC50 [3]	SMILES	also measured
< 5 nM	0.076 nM	< 50 nM	Cc1cc2cc(n1)-c1cnn(C)c1OCCC[C@@H](C1CC1)CN1/C(=N/C2=O)Nc2cc(N[C@H](C)CCN3CCCCC3)ccc21 [Example 139]	–
–	–	< 50 nM	Cc1cc2cc(n1)-c1cnn(C)c1OCCC[C@@H](C1CC1)CN1/C(=N/C2=O)Nc2ccc(N[C@H]3C[C@H](N(C)C)C3)cc21 [Example 128]	IC50 [4]: 0.13 nM; CLz ([5]; IV): 4.52 L/h/kg; AUC(0-inf) ([5]; 1 mg/kg, IV): 221 ng·h/mL; AUC(0-t) ([5]; 1 mg/kg, IV): 214 ng·h/mL; MRT last ([5]; 1 mg/kg, IV): 1.65 h; half-life ([5]; 1 mg/kg, IV): 130 min; bioavailability [5]: 30.5%; AUC(0-inf) ([5]; PO, 10 mg/kg intragastric): 662 ng·h/mL; AUC(0-t) ([5]; PO, 10 mg/kg intragastric): 654 ng·h/mL; Cmax ([5]; PO, 10 mg/kg intragastric): 57.8 ng/mL; MRT last ([5]; PO, 10 mg/kg intragastric): 6.81 h; Tmax ([5]; PO, 10 mg/kg intragastric): 6 h; half-life ([5]; PO, 10 mg/kg intragastric): 208 min
–	–	< 50 nM	Cc1cc2cc(n1)-c1cnn(C)c1OCCC[C@@H](C1CC1)CN1/C(=N/C2=O)Nc2ccc(N(C)C3CCN(C)CC3)cc21 [Example 117]	IC50 [4]: 0.12 nM; CLz ([5]; IV): 3.49 L/h/kg; AUC(0-inf) ([5]; 1 mg/kg, IV): 286 ng·h/mL; AUC(0-t) ([5]; 1 mg/kg, IV): 284 ng·h/mL; MRT last ([5]; 1 mg/kg, IV): 3.3 h; half-life ([5]; 1 mg/kg, IV): 131 min; bioavailability [5]: 29.1%; AUC(0-inf) ([5]; PO, 10 mg/kg intragastric): 848 ng·h/mL; AUC(0-t) ([5]; PO, 10 mg/kg intragastric): 826 ng·h/mL; Cmax ([5]; PO, 10 mg/kg intragastric): 77.1 ng/mL; MRT last ([5]; PO, 10 mg/kg intragastric): 6.79 h; Tmax ([5]; PO, 10 mg/kg intragastric): 6 h; half-life ([5]; PO, 10 mg/kg intragastric): 250 min
< 5 nM	–	< 50 nM	Cc1cc2cc(n1)-c1cnn(C)c1OCCC[C@@H](C1CC1)CN1/C(=N/C2=O)Nc2ccc(NC3CC(N(C)C)C3)cc21 (stereo partly drawn) [Example 98]	IC50 [4]: 0.087 nM
< 5 nM	0.1 nM	< 50 nM	[2H]C([2H])([2H])N(C[C@H](C)Nc1ccc2c(c1)N1C[C@H](C3CC3)CCCOc3c(cnn3C)-c3cc(cc(C)n3)C(=O)/N=C/1N2)C([2H])([2H])[2H] [Example 123]	–
< 5 nM	0.072 nM	< 50 nM	Cc1cc2cc(n1)-c1cnn(C)c1OCCC[C@@H](C1CC1)CN1/C(=N/C2=O)Nc2ccc(N[C@H](C)CN3CCCCC3)cc21 [Example 141]	–
–	–	< 50 nM	Cc1cc2cc(n1)-c1cnn(C)c1OCCC[C@@H](C1CC1)CN1/C(=N/C2=O)Nc2ccc(N[C@H]3CC[C@H](N(C)C)C3)cc21 [Example 136]	IC50 [4]: 0.15 nM

Reference: patent US20250034165A1, “COMPOUND CONTAINING CYCLOALKYL OR HALOALKYL” (CHIA TAI TIANQING PHARMACEUTICAL GROUP CO., LTD., priority 2021, published 2025)
